Columns and labels:
Ras protein = experiment: Ras translocation from membrane to cytoplasm by confocal microscopy; format: cell-based; details: human glioma, lung cancer and leukaemia cells
Procedure: The high levels of 2OHOA and SM in the membrane impede the anchoring of the Ras protein on the membrane.
2OHOA increases levels of SM in tumoral cells treated as explained above. […] SM is lipid in the membrane which impedes the bonding of certain molecules involved in the proliferation of cells, such as the Ras protein. In this way, levels of Ras were measured by confocal microscopy, using an antibody marked fluorescently, and we were able to detect that the marker passed from the membrane (FIG. 6: 95-99% of total detected fluorescence in the membrane before treatment) to the cytoplasm (94-97% of fluorescence detected in the inside of the cell after treatment with 2OHOA) in human glioma, lung cancer and leukaemia cells. The translocation of Ras from the membrane to the cytoplasm means an absence of productive interaction between Ras and Receptor-Tirosine-Kinase (RTK) or between Ras and Raf, so the proteins in MAP kinase chain are not activated and the tumoral cells cease to proliferate and programmed cell death starts. Changes in cell physiology induced by the molecules of present invention, have as intermediate effects (prior to the cancer cells death or the regulation of the activity in other cells), the induction of dramatic reductions in DHFR levels and dramatic increases of GFAP levels (FIG. 6).

U118 cells = experiment: Nuclear SM levels in U118 cells; format: cell-based, human; details: U118, 200 μM, 24 hours
Procedure: FIG. 3. Compound 2OHOA induces an increase in nuclear SM. U118 cancer cells were treated for 24 hours with a vehicle (control) or with 2OHOA at a concentration of 200 μM. The values of the ordinate axis represent the average±ESM (n=3-5) of levels of SM compared to the untreated control (100%).
Another effect associated to the reduction in cell proliferation is an increase in the levels of nuclear SM.

enzyme EC 1.14.19.1 = experiment: [3H]oleate incorporation in U118 cell membranes; format: cell-based, human; details: U118, 200 μM, 24 h
Procedure: FIG. 10. Regulation of the activity of enzyme 1.14.19.1.
Oleic acid is synthesised from esteric acid by the activity of the estearoil-CoA desaturase enzyme (EC 1.14.19.1). This enzyme is crucial in lipid metabolism, as it is a limitant in the synthesis of fatty acids. To see whether this reduction was due to regulation of enzyme EC 1.14.19.1, we incubated U118 cells in the presence or absence of 2OHOA (200 μM, 24 h) and, later, in the presence of [^3H]oleate (5 minutes).

[1] = system: Raf, MEK, MAP kinase (ERK1 y ERK2), Akt and EGFR; experiment: Immunoblot of phosphorylased signalling proteins; format: cell-based, human
Procedure: D: The state of activity (levels of phosphorylased forms) of Akt and EGFR also decreases after incubating with 250 μM of 2OHOA.

A172 cells = experiment: Levels of SM in cell membranes, A172; format: cell-based, human; details: A172, 200 μM [−]2OHOA
Procedure: (§1) The levels of SM, cultivated in the absence (control) or presence of 200 μM of [−]2OHOA, in normal cell membranes (MRC-5 and IMR90) were measured, and also in several types of tumoral cells (see Table 2). In all cases, we detected that the membranes of tumoral cells have SM levels of about half or a third of that in normal cells (FIG. 1). We can therefore assert that SM concentration is a biomarker which indicates tumorgenesis in human cells. On the other hand, treatments with the molecules of the present invention induce an increase of SM in the tumour cells which is not naturally occurring. […] For example, the spectrophotometry determination of solution fluorescence of the SM levels is a very simple, quick and efficient analysis method (FIG. 1D). Thus, this invention has generated a method for diagnosis for detecting the described pathological processes and pathologies in which there are SM level changes, and also for monitoring the efficiency of the therapy using molecules of the present invention and others of similar activity. Based on this knowledge, this invention also includes kits for diagnosing these diseases.

U87 cells = experiment: Levels of SM in cell membranes, U87; format: cell-based, human; details: U87, 200 μM [−]2OHOA
Procedure: as §1

SH-SYSY cells = experiment: Levels of SM in cell membranes, SH-SYSY; format: cell-based, human; details: 200 μM [−]2OHOA
Procedure: as §1

BXPC3 cells = experiment: Levels of SM in cell membranes, BXPC3; format: cell-based, human; details: BXPC3, 200 μM [−]2OHOA
Procedure: as §1

SF268 cells = experiment: Cell growth inhibition, SF268; format: cell-based, human; parameters: key: +: inhibition of cell growth; −: absence of effect
C-6 cells = experiment: Cell growth inhibition, C-6; format: cell-based, rat; parameters: key: +: inhibition of cell growth; −: absence of effect

SMILES | Ras fluorescence detected in the inside of the cell after treatment (Ras protein) | level of nuclear SM (U118 cells) | incorporation of radioactive oleic acid in cell membranes (enzyme EC 1.14.19.1) | state of activity (phosphorylased forms) of Akt and EGFR ([1]; 250 μM) | phosphorylased (active) form of Raf and MEK ([1]; 150, 200 o 250 μM) | state of activity of MAP kinase (ERK1 y ERK2) ([1]; 150, 200 o 250 μM) | % SM after treatment (A172 cells) [%] | % SM after treatment (U87 cells) [%] | % SM after treatment (SH-SYSY cells) [%] | % SM after treatment (BXPC3 cells) [%] | Effect (anti-proliferation effect) (SF268 cells) | Effect (anti-proliferation effect) (C-6 cells)
CCCCCCCC/C=C\CCCCCCC(O)C(=O)O (racemic) [2OHOA, 2-hydroxyoleic acid] | 94-97% | increases in the level of nuclear SM | significantly less than in control cells | decreases | reduction in state of the (active) phosphorylased form of both proteins | dramatic reduction in the state of activity | – | – | – | – | – | –
CCCCCCCC/C=C\CCCCCCC(O)C(=O)O (stereo not drawn) [[−]2OHOA] [[−] HOOC—HOCH—(CH2)6—(CH═CH—CH2)1—(CH2)6—CH3] | – | – | – | – | – | – | 23 | 21 | 22 | 26 | + | +
